Test systems include OVCAR-5 ovarian; HT29 colon; MOLT-4 leukemia; U251 CNS; CCRF-CEM leukemia; SK-MEL-5 melanoma; DU-145 prostate; OVCAR-4 ovarian; HL-60(TB) leukemia.
Experiment in all cases: inhibition of tumour cell growth, NCI panel, 48 h

The values that follow come from PubChem BioAssay (NCI).

Molecules are shown by their SMILES.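 Interpolation was linear, between the two tested concentrations surrounding the appropriate level; five concentrations were tested over 48 hours in 96-well plates. Definition used: TGI = concentration required for complete inhibition of growth.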 Bounds are passed on as bounds.

Consider `CC(C)(C)c1ccc(-c2nnc(-c3cc(C#N)cc(-c4nnc(-c5ccc(C(C)(C)C)cc5)o4)c3)o2)cc1`, for which the TGI in the assay on OVCAR-5 ovarian, in the assay on HT29 colon, in the assay on MOLT-4 leukemia, with U251 CNS, in the assay with CCRF-CEM leukemia and with SK-MEL-5 melanoma was more than 100 µM in each case. Also, the TGI with DU-145 prostate and with OVCAR-4 ovarian was more than 100 µM throughout.

As to `O=[N+]([O-])/C=C/c1cn(CCCCCn2cc(/C=C/[N+](=O)[O-])c3ccccc32)c2ccccc12`, the TGI in the assay with OVCAR-5 ovarian is 32.3 µM; in the assay with HT29 colon, 7.82 µM; with MOLT-4 leukemia, more than 20.4 µM; in the assay on U251 CNS, 3.89 µM; in the assay with SK-MEL-5 melanoma, 3.46 µM; with HL-60(TB) leukemia, 2.5 µM. Further, the TGI in the assay with DU-145 prostate came to 7.25 µM; in the assay with OVCAR-4 ovarian it was 7.1 µM.

As for `CC12CC(C/C1=N/O)C(C)(C)C2` (centres undefined), the TGI in the assay on OVCAR-5 ovarian, in the assay on HT29 colon, in the assay on U251 CNS, with CCRF-CEM leukemia, in the assay with SK-MEL-5 melanoma and in the assay on HL-60(TB) leukemia was more than 100 µM in each case. The TGI with DU-145 prostate and in the assay on OVCAR-4 ovarian was more than 100 µM each time.

As to `CCOC(=O)CCCn1cc(C(=O)OC)nn1`, the TGI in the assay with HT29 colon, with MOLT-4 leukemia, with U251 CNS, in the assay with CCRF-CEM leukemia, in the assay with SK-MEL-5 melanoma and in the assay with DU-145 prostate was more than 100 µM each time. This molecule gave a TGI in the assay with OVCAR-4 ovarian of more than 100 µM.

Regarding `CC1(C)CCC2(C(=O)OC3OC(CO)C(O)C(O)C3O)CCC3(CO)C(=CCC4C5(C)CC(O)C(O)C(C)(C(=O)OC6OC(CO)C(O)C(O)C6O)C5CCC43C)C2C1` (centres undefined), the TGI with OVCAR-5 ovarian, in the assay with HT29 colon, in the assay on MOLT-4 leukemia, in the assay with U251 CNS, in the assay on SK-MEL-5 melanoma and in the assay with HL-60(TB) leukemia was more than 100 µM in each case. In addition, the TGI in the assay on DU-145 prostate and in the assay on OVCAR-4 ovarian was more than 100 µM in each case.

`[N-]=[N+]=C(C(=O)C(=[N+]=[N-])C(=O)c1ccccc1)C(=O)c1ccccc1`: the TGI in the assay on OVCAR-5 ovarian, in the assay with HT29 colon, with SK-MEL-5 melanoma, in the assay with HL-60(TB) leukemia and in the assay with DU-145 prostate was more than 100 µM in each case.

For the molecule `COC(=O)C(C(=O)C(=O)NC1Nc2ccc(C)cc2S1)c1nc2ccc(Cl)cc2[nH]c1=O` (centres undefined), the TGI in the assay with OVCAR-5 ovarian, with HT29 colon, in the assay on U251 CNS, in the assay on SK-MEL-5 melanoma, in the assay on HL-60(TB) leukemia and with OVCAR-4 ovarian was more than 100 µM throughout.

On to `O=c1oc2ccc(Cl)cc2cc1-c1cn2ccsc2n1`, for which the TGI is more than 100 µM with HT29 colon; more than 100 µM in the assay with MOLT-4 leukemia; more than 100 µM in the assay with U251 CNS; 78.3 µM with CCRF-CEM leukemia; more than 100 µM with SK-MEL-5 melanoma; 85.1 µM with HL-60(TB) leukemia. Also, the TGI with DU-145 prostate and in the assay with OVCAR-4 ovarian was more than 100 µM in each case.

In the case of `Cc1ccc(S(=O)(=O)N/N=C2\C3CC4CC(C3)C2C4)cc1` (centres undefined), the TGI with OVCAR-5 ovarian, in the assay with HT29 colon, in the assay with MOLT-4 leukemia, in the assay with U251 CNS, with CCRF-CEM leukemia and in the assay with SK-MEL-5 melanoma was more than 100 µM in each case. For the same molecule, the TGI in the assay on HL-60(TB) leukemia and in the assay with OVCAR-4 ovarian was more than 100 µM throughout.

Take `O=C1/C(=C\c2cccc(Oc3ccccc3)c2)SC(c2ccccc2)N1c1cccc([N+](=O)[O-])c1` (centres undefined): the TGI in the assay on OVCAR-5 ovarian is more than 100 µM; in the assay with HT29 colon, more than 100 µM; with MOLT-4 leukemia it was more than 100 µM; with U251 CNS, more than 100 µM; with CCRF-CEM leukemia it was 81.2 µM; with SK-MEL-5 melanoma, more than 100 µM. In addition, the TGI in the assay with DU-145 prostate and in the assay on OVCAR-4 ovarian was more than 100 µM each time.

Consider `CCCCCCCCCCCCCCCCOCC(Cl)COP(=O)(O)OP(=O)(O)OCC1OC(n2cnc3c(N)ncnc32)C(O)C1O` (centres undefined), for which the TGI in the assay with OVCAR-5 ovarian, with HT29 colon, in the assay on MOLT-4 leukemia, in the assay on U251 CNS, in the assay with CCRF-CEM leukemia and in the assay with SK-MEL-5 melanoma was more than 100 µM each time. Further, the TGI with HL-60(TB) leukemia and with OVCAR-4 ovarian was more than 100 µM each time.

As for `CCN(CC)CCN(C)CCc1ccc(Br)cc1`, the TGI in the assay with OVCAR-5 ovarian was more than 100 µM; with HT29 colon, more than 100 µM; with MOLT-4 leukemia it was more than 100 µM; in the assay on U251 CNS, more than 100 µM; with CCRF-CEM leukemia, more than 100 µM; with SK-MEL-5 melanoma, 33.6 µM. Further, the TGI with DU-145 prostate and in the assay with OVCAR-4 ovarian was more than 100 µM throughout.

Consider `COc1ccc(C2=C(OC(=O)N(C)C)c3cccn3-c3cc(Cl)ccc3S2)cc1`, for which the TGI in the assay with HT29 colon, with MOLT-4 leukemia, in the assay on CCRF-CEM leukemia, in the assay on SK-MEL-5 melanoma, in the assay on HL-60(TB) leukemia and in the assay with DU-145 prostate was more than 10 µM each time. The molecule further gave a TGI in the assay with OVCAR-4 ovarian of more than 10 µM.

As for `CC(C)CCCC(C)[C@H]1CC[C@H]2N=C(Nc3ccccc3)CCC[C@]12C` (some centres undefined), the TGI in the assay on HT29 colon turned out to be 4.09 µM; in the assay on MOLT-4 leukemia, 3.97 µM; in the assay on U251 CNS, 4.33 µM; in the assay with CCRF-CEM leukemia, 25.3 µM; with SK-MEL-5 melanoma, 3 µM; in the assay with HL-60(TB) leukemia, 4.7 µM. The TGI with DU-145 prostate was more than 100 µM; in the assay with OVCAR-4 ovarian it was 14.4 µM.

For the molecule `N#CCCC1(CCC#N)CCCCCCC(CCC#N)(CCC#N)C(O)C1O` (centres undefined), the TGI with OVCAR-5 ovarian, with HT29 colon, in the assay with U251 CNS, with SK-MEL-5 melanoma, in the assay on DU-145 prostate and with OVCAR-4 ovarian was more than 100 µM throughout.

`NC(=S)N/N=C\CC(O)(C(F)(F)F)C(F)(F)F`: the TGI in the assay with HT29 colon, with MOLT-4 leukemia, in the assay with U251 CNS, in the assay with CCRF-CEM leukemia, in the assay with SK-MEL-5 melanoma and in the assay with HL-60(TB) leukemia was more than 10 µM in each case. For the same molecule, the TGI with DU-145 prostate and in the assay with OVCAR-4 ovarian was more than 10 µM each time.
